Measurements published in article PMC12892976, “Alkylation-based optimization of antifungal FPPS inhibitors yields a potent, broad-spectrum lipophilic zoledronate derivative” (mBio, 2025).
Read-outs that look alike come from different tables or passages of the source.

Columns and labels:
eight fungal species [1] = assay: MIC/MFC summary across the eight fungal species of Table 1; assay type: cell-based
Procedure: The antifungal activity of these compounds was evaluated according to CLSI guidelines ([16]).

Candida albicans [2] = assay: MIC/MFC broth microdilution (CLSI); assay type: cell-based; settings: Candida albicans SC5314
Procedure: (§1) Antifungal susceptibility was determined by broth microdilution according to the CLSI guidelines described in M27-Ed4 ([16]). […] MFC was determined by back-plating drug-treated cultures from MIC broths onto SDA plates. The MFC was defined as the lowest concentration from which no colonies could be cultured.

Aspergillus flavus [3] = assay: checkerboard drug interaction (FICI, MICc);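 also: simplified diagonal checkerboard screen pairing azole antifungals with FPPS inhibitors, FICI calculated under the Loewe additivity model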; assay type: cell-based; parameters: INH MICc (KET:INH) / INH MICc (FLC:INH): unit not given beside the values; settings: A. flavus
Trichophyton rubrum [4] = assay: checkerboard drug interaction (FICI, MICc);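 also: simplified diagonal checkerboard screen pairing azole antifungals with FPPS inhibitors, FICI calculated under the Loewe additivity model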; assay type: cell-based; settings: T. rubrum
Procedure: (§2) Drug interactions between antifungals and FPPS inhibitors were investigated using a simplified checkerboard diagonal screening method ([45]). […] FICIs were determined according to the Loewe additivity model ([17]).

Candida glabrata [5] = assay: MIC/MFC broth microdilution (CLSI); settings: Nakaseomyces glabratus, CBS138;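 also: broth microdilution following CLSI M27-Ed4, MFC taken as the lowest drug level yielding no growth once MIC wells were subcultured on SDA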
Procedure: as §1

Saccharomyces cerevisiae [6] = assay: checkerboard drug interaction (FICI, MICc); assay type: cell-based; parameters: INH MICc / INH MICc (ITR:INH) / INH MICc (KET:INH) / INH MICc (FLC:INH): unit not given beside the values;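 also: simplified diagonal checkerboard screen pairing antifungals with FPPS inhibitors, FICI calculated under the Loewe additivity model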
Aspergillus fumigatus [7] = assay: checkerboard drug interaction (FICI, MICc); assay type: cell-based;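 also: simplified diagonal checkerboard screen pairing antifungals with FPPS inhibitors against Aspergillus fumigatus, with FICI calculated under the Loewe additivity model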
Procedure: as §2

Cryptococcus neoformans [8] = assay: MIC/MFC broth microdilution (CLSI); settings: Cryptococcus neoformans;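 also: susceptibility testing followed the CLSI M27-Ed4 broth microdilution document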
Procedure: as §1

Candida albicans [9] = assay: checkerboard drug interaction (FICI, MICc);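 as to all read-outs here: antifungal plus FPPS inhibitor combinations on Candida albicans tested by a simplified diagonal checkerboard screen, with FICI calculated under the Loewe additivity model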; assay type: cell-based; settings: C. albicans; for INH FD (MIC-MICc fold decrease): fold decrease of inhibitor MIC
Procedure: as §2

eight fungal species [10] = assay: checkerboard interaction with azoles, summary across the eight species; assay type: cell-based; settings: geometric mean MIC in combination with azoles
Description: Synergy between lipophilic FPPS inhibitors and azole antifungals was investigated by determining the fractional inhibitory concentration index (FICI) (Fig. 2; Table S1 Fig. S1) ([17]). […]. Derivatives PLA9 and 11, and PDA9, 11, and 12 antagonized azoles in C. albicans, C. neoformans, and C. deuterogattii, yet were largely synergistic in C. glabrata and S. cerevisiae. […].

Cryptococcus neoformans [11] = assay: checkerboard drug interaction (FICI, MICc);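 as to all read-outs here: antifungal plus FPPS inhibitor pairs tested against Cryptococcus neoformans by simplified diagonal checkerboard screening, FICI computed under the Loewe additivity model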; assay type: cell-based; settings: C. neoformans; for INH FD (MIC-MICc fold decrease): fold decrease of inhibitor MIC
Procedure: as §2

[12] = system: Cryptococcus deuterogattii; assay: MIC/MFC broth microdilution (CLSI); settings: Cryptococcus deuterogattii;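 also: broth microdilution per CLSI M27-Ed4. MFC is the lowest concentration yielding no colonies when MIC broths are subcultured onto SDA plates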
Procedure: as §1

Aspergillus flavus [13] = assay: MIC/MFC broth microdilution (CLSI); settings: ATCC204304
Procedure: as §1

Candida glabrata [14] = assay: checkerboard drug interaction (FICI, MICc);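 as to all read-outs here: simplified diagonal checkerboard screen pairing antifungals with FPPS inhibitors, FICI calculated under the Loewe additivity model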; assay type: cell-based; settings: C. glabrata; for INH FD (MIC-MICc fold decrease): fold decrease of inhibitor MIC
Procedure: as §2

Trichophyton rubrum [15] = assay: MIC/MFC broth microdilution (CLSI); settings: Trichophyton rubrum
Procedure: as §1

[16] = system: Cryptococcus deuterogattii; assay: checkerboard drug interaction (FICI, MICc);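 as to all read-outs here: simplified diagonal checkerboard screen pairing antifungal drugs with FPPS inhibitors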; assay type: cell-based; settings: C. deuterogattii; for INH FD (MIC-MICc fold decrease): fold decrease of inhibitor MIC
Procedure: as §2

Saccharomyces cerevisiae [17] = assay: MIC/MFC broth microdilution (CLSI); assay type: cell-based; settings: Saccharomyces cerevisiae S288c
Procedure: as §1

HEK-293T cells = assay: MTT reduction cytotoxicity assay; assay type: cell-based; settings: Homo sapiens, HEK-293T, 72 h, HEK-293T, MTT, 72 h; read-out: HEK IC50
Aspergillus fumigatus [18] = assay: MIC/MFC broth microdilution (CLSI); settings: ATCC204305
Procedure: as §1

[19] = Fractional Inhibitory Concentration Index, fluconazole + inhibitor
[20] = Fractional Inhibitory Concentration Index, itraconazole + inhibitor
[21] = Fractional Inhibitory Concentration Index, ketoconazole + inhibitor
[22] = MIC of the inhibitor in combination with fluconazole
[23] = MIC of the inhibitor in combination with itraconazole
[24] = MIC of the inhibitor in combination with ketoconazole
[25] = MIC-MICc fold decrease of fluconazole, negative = increase
[26] = MIC-MICc fold decrease of itraconazole, negative = increase
[27] = MIC-MICc fold decrease of ketoconazole, negative = increase
[28] = MIC-MICc fold decrease of the inhibitor, with fluconazole
[29] = MIC-MICc fold decrease of the inhibitor, with itraconazole
[30] = MIC-MICc fold decrease of the inhibitor, with ketoconazole
[31] = FLC:INH combination, MIC of the inhibitor in combination with FLC
[32] = FLC:INH combination, fold decrease of FLC MIC
[33] = ITR:INH combination, MIC of the inhibitor in combination with ITR
[34] = ITR:INH combination, fold decrease of ITR MIC
[35] = KET:INH combination, MIC of the inhibitor in combination with KET
[36] = KET:INH combination, fold decrease of KET MIC

Structure (SMILES): CCCCCCCCCCCN1CCC[C@H]1C(=O)N[C@H](CC(=O)O)C(=O)O [PDA11]
- MFC (eight fungal species [1]; across eight species, read-out: Geometric mean MFC): > 128 µg/mL
- MIC (eight fungal species [1]; geometric mean across eight species, read-out: GM fungal MIC): > 128 µg/mL
- MIC (eight fungal species [1]; read-out: Geometric mean MIC): > 128 µg/mL
- MFC (Candida albicans [2]): > 128 µg/mL
- MIC (Candida albicans [2]): > 128 µg/mL
- FICI (FLC:INH) (Aspergillus flavus [3]; [19]): 1
- FICI (ITR:INH) (Aspergillus flavus [3]; [20]): 2
- FICI (KET:INH) (Aspergillus flavus [3]; [21]): 0.75
- INH MICc (FLC:INH) (Aspergillus flavus [3]; [22]): 128
- INH MICc (ITR:INH) (Aspergillus flavus [3]; [23]): 256
- INH MICc (KET:INH) (Aspergillus flavus [3]; [24]): 64
- FLC FD (FLC:INH) (Aspergillus flavus [3]; [25]): 2
- ITR FD (ITR:INH) (Aspergillus flavus [3]; [26]): 1
- KET FD (KET:INH) (Aspergillus flavus [3]; [27]): 2
- INH FD (FLC:INH) (Aspergillus flavus [3]; [28]): 2
- INH FD (ITR:INH) (Aspergillus flavus [3]; [29]): 1
- INH FD (KET:INH) (Aspergillus flavus [3]; [30]): 4
- FICI (FLC:INH) (Trichophyton rubrum [4]; [19]): 3
- FICI (ITR:INH) (Trichophyton rubrum [4]; [20]): 2
- FICI (KET:INH) (Trichophyton rubrum [4]; [21]): 3
- INH MICc (FLC:INH) (Trichophyton rubrum [4]; [22]): 256
- INH MICc (ITR:INH) (Trichophyton rubrum [4]; [23]): 256
- INH MICc (KET:INH) (Trichophyton rubrum [4]; [24]): 256
- FLC FD (FLC:INH) (Trichophyton rubrum [4]; [25]): -2
- ITR FD (ITR:INH) (Trichophyton rubrum [4]; [26]): 1
- KET FD (KET:INH) (Trichophyton rubrum [4]; [27]): -2
- INH FD (FLC:INH) (Trichophyton rubrum [4]; [28]): 1
- INH FD (ITR:INH) (Trichophyton rubrum [4]; [29]): 1
- INH FD (KET:INH) (Trichophyton rubrum [4]; [30]): 1
- MFC (Candida glabrata [5]): > 128 µg/mL
- MIC (Candida glabrata [5]): > 128 µg/mL
- FICI (FLC:INH) (Saccharomyces cerevisiae [6]; [19]): 0.5
- FICI (ITR:INH) (Saccharomyces cerevisiae [6]; [20]): 1.5
- FICI (KET:INH) (Saccharomyces cerevisiae [6]; [21]): 0.5
- INH MICc (FLC:INH) (Saccharomyces cerevisiae [6]; [22]): 64
- INH MICc (ITR:INH) (Saccharomyces cerevisiae [6]; [23]): 128
- INH MICc (KET:INH) (Saccharomyces cerevisiae [6]; [24]): 64
- FLC FD (FLC:INH) (Saccharomyces cerevisiae [6]; [25]): 4
- ITR FD (ITR:INH) (Saccharomyces cerevisiae [6]; [26]): 1
- KET FD (KET:INH) (Saccharomyces cerevisiae [6]; [27]): 4
- INH FD (FLC:INH) (Saccharomyces cerevisiae [6]; [28]): 4
- INH FD (ITR:INH) (Saccharomyces cerevisiae [6]; [29]): 2
- INH FD (KET:INH) (Saccharomyces cerevisiae [6]; [30]): 4
- FICI (FLC:INH) (Aspergillus fumigatus [7]; [19]): 2
- FICI (ITR:INH) (Aspergillus fumigatus [7]; [20]): 0.51
- FICI (KET:INH) (Aspergillus fumigatus [7]; [21]): 1.5
- INH MICc (FLC:INH) (Aspergillus fumigatus [7]; [22]): 256
- INH MICc (ITR:INH) (Aspergillus fumigatus [7]; [23]): 2
- INH MICc (KET:INH) (Aspergillus fumigatus [7]; [24]): 128
- FLC FD (FLC:INH) (Aspergillus fumigatus [7]; [25]): 1
- ITR FD (ITR:INH) (Aspergillus fumigatus [7]; [26]): 2
- KET FD (KET:INH) (Aspergillus fumigatus [7]; [27]): 1
- INH FD (FLC:INH) (Aspergillus fumigatus [7]; [28]): 1
- INH FD (ITR:INH) (Aspergillus fumigatus [7]; [29]): 128
- INH FD (KET:INH) (Aspergillus fumigatus [7]; [30]): 2
- MFC (Cryptococcus neoformans [8]): > 128 µg/mL
- MIC (Cryptococcus neoformans [8]): > 128 µg/mL
- FICI (Candida albicans [9]; FLC:INH combination): ≥4
- INH MICc (Candida albicans [9]; [31]): 128
- FLC FD (MIC-MICc fold decrease) (Candida albicans [9]; [32]): < -4
- INH FD (MIC-MICc fold decrease) (Candida albicans [9]; FLC:INH combination): 2
- FICI (Candida albicans [9]; ITR:INH combination): ≥4
- INH MICc (Candida albicans [9]; [33]): 128
- ITR FD (MIC-MICc fold decrease) (Candida albicans [9]; [34]): < -4
- INH FD (MIC-MICc fold decrease) (Candida albicans [9]; ITR:INH combination): 2
- FICI (Candida albicans [9]; KET:INH combination): ≥4
- INH MICc (Candida albicans [9]; [35]): 64
- KET FD (MIC-MICc fold decrease) (Candida albicans [9]; [36]): < -4
- INH FD (MIC-MICc fold decrease) (Candida albicans [9]; KET:INH combination): 4
- GM fungal MICc (eight fungal species [10]): 78.3
- FICI (Cryptococcus neoformans [11]; FLC:INH combination): ≥4
- INH MICc (Cryptococcus neoformans [11]; [31]): 256
- FLC FD (MIC-MICc fold decrease) (Cryptococcus neoformans [11]; [32]): < -4
- INH FD (MIC-MICc fold decrease) (Cryptococcus neoformans [11]; FLC:INH combination): 1
- FICI (Cryptococcus neoformans [11]; ITR:INH combination): ≥4
- INH MICc (Cryptococcus neoformans [11]; [33]): 256
- ITR FD (MIC-MICc fold decrease) (Cryptococcus neoformans [11]; [34]): < -4
- INH FD (MIC-MICc fold decrease) (Cryptococcus neoformans [11]; ITR:INH combination): 1
- FICI (Cryptococcus neoformans [11]; KET:INH combination): ≥4
- INH MICc (Cryptococcus neoformans [11]; [35]): 128
- KET FD (MIC-MICc fold decrease) (Cryptococcus neoformans [11]; [36]): -4
- INH FD (MIC-MICc fold decrease) (Cryptococcus neoformans [11]; KET:INH combination): 2
- MFC [12]: > 128 µg/mL
- MIC [12]: > 128 µg/mL
- MFC (Aspergillus flavus [13]): > 128 µg/mL
- MIC (Aspergillus flavus [13]): > 128 µg/mL
- FICI (Candida glabrata [14]; FLC:INH combination): 0.63
- INH MICc (Candida glabrata [14]; [31]): 8
- FLC FD (MIC-MICc fold decrease) (Candida glabrata [14]; [32]): 2
- INH FD (MIC-MICc fold decrease) (Candida glabrata [14]; FLC:INH combination): 32
- FICI (Candida glabrata [14]; ITR:INH combination): 0.28
- INH MICc (Candida glabrata [14]; [33]): 2
- ITR FD (MIC-MICc fold decrease) (Candida glabrata [14]; [34]): 4
- INH FD (MIC-MICc fold decrease) (Candida glabrata [14]; ITR:INH combination): 128
- FICI (Candida glabrata [14]; KET:INH combination): 0.28
- INH MICc (Candida glabrata [14]; [35]): 2
- KET FD (MIC-MICc fold decrease) (Candida glabrata [14]; [36]): 4
- INH FD (MIC-MICc fold decrease) (Candida glabrata [14]; KET:INH combination): 128
- MFC (Trichophyton rubrum [15]): > 128 µg/mL
- MIC (Trichophyton rubrum [15]): > 128 µg/mL
- FICI ([16]; FLC:INH combination): ≥4
- INH MICc [16, 31]: 256
- FLC FD (MIC-MICc fold decrease) [16, 32]: -4
- INH FD (MIC-MICc fold decrease) ([16]; FLC:INH combination): 1
- FICI ([16]; ITR:INH combination): ≥4
- INH MICc [16, 33]: 256
- ITR FD (MIC-MICc fold decrease) [16, 34]: < -4
- INH FD (MIC-MICc fold decrease) ([16]; ITR:INH combination): 1
- FICI ([16]; KET:INH combination): 1
- INH MICc [16, 35]: 128
- KET FD (MIC-MICc fold decrease) [16, 36]: 2
- INH FD (MIC-MICc fold decrease) ([16]; KET:INH combination): 2
- MFC (Saccharomyces cerevisiae [17]): > 128 µg/mL
- MIC (Saccharomyces cerevisiae [17]): > 128 µg/mL
- IC50 (HEK-293T cells): > 256 µg/mL
- MFC (Aspergillus fumigatus [18]): > 128 µg/mL
- MIC (Aspergillus fumigatus [18]): > 128 µg/mL
